# Molecular target: T1, Met kinase domain (GST fusion protein) (Homo sapiens, UniProt P08581)
# T1 construct: Purified GST fusion protein containing the Met kinase domain
# Assay: Met transphosphorylation assay (ELISA, poly(glu-tyr) substrate);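 further: Cell-free ELISA with plate-bound poly(Glu:Tyr 4:1) phosphorylated by GST-fused Met kinase domain plus ATP and Mn2+, phosphotyrosine detected by anti-phosphotyrosine antibody with HRP and ABTS read-out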
# Type: biochemical
# Conditions: plain numbers in column Met IC50 (μM) of Table 2; read-out: Met IC50
# T1 sequence (P08581 1078-1345 limits assumed): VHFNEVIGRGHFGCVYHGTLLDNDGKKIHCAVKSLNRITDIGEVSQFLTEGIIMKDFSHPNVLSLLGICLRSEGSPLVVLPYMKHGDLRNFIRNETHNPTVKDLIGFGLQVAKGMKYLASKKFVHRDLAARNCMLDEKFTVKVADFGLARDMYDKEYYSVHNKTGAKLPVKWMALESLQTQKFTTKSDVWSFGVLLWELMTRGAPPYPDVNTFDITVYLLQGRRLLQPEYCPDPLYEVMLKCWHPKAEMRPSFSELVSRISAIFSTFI
row,SMILES,IC50
1,"CC(Oc1cc(-c2ccc(C(=O)NC3CCN(C)CC3)cc2)cnc1N)c1c(Cl)cccc1Cl (stereo not drawn) [Example I-403, 4-{6-Amino-5-[1-(2,6-dichloro-phenyl)-ethoxy]-pyridin-3-yl}-N-(1-methyl-piperidin-4-yl)-benzamide]",0.062 µM
2,"CC(Oc1cc(-c2ccc(C(=O)N3C[C@@H](C)N[C@@H](C)C3)cc2)cnc1N)c1c(Cl)cccc1Cl (stereo partly drawn) [Example I-404, (4-{6-Amino-5-[1-(2,6-dichloro-phenyl)-ethoxy]-pyridin-3-yl}-phenyl)-((3R,5S)-3,5-dimethyl-piperazin-1-yl)-methanone]",0.052 µM
3,"CC(=O)N1CCN(CCNC(=O)c2ccc(-c3cnc(N)c(OC(C)c4c(Cl)cccc4Cl)c3)cc2)CC1 (stereo not drawn) [Example I-405, N-[2-(4-Acetyl-piperazin-1-yl)-ethyl]-4-{6-amino-5-[1-(2,6-dichloro-phenyl)-ethoxy]-pyridin-3-yl}-benzamide]",0.062 µM
4,"CC(Oc1cc(-c2ccc(C(=O)NCCCN3CCCC3)cc2)cnc1N)c1c(Cl)cccc1Cl (stereo not drawn) [Example I-406, 4-{6-Amino-5-[1-(2,6-dichloro-phenyl)-ethoxy]-pyridin-3-yl}-N-(3-pyrrolidin-1-yl-propyl)-benzamide]",0.061 µM
5,"CC(Oc1cc(-c2ccc(C(=O)N3CC[C@H](N)C3)cc2)cnc1N)c1c(Cl)cccc1Cl (stereo partly drawn) [Example I-407, (4-{6-Amino-5-[1-(2,6-dichloro-phenyl)-ethoxy]-pyridin-3-yl}-phenyl)-((S)-3-aminopyrrolidin-1-yl)-methanone]",0.05 µM
6,"CC(Oc1cc(-c2ccc(C(=O)N3CC[C@@H](N)C3)cc2)cnc1N)c1c(Cl)cccc1Cl (stereo partly drawn) [Example I-408, (4-{6-Amino-5-[1-(2,6-dichloro-phenyl)-ethoxy]-pyridin-3-yl}-phenyl)-((R)-3-amino-pyrrolidin-1-yl)-methanone]",0.049 µM
7,"CC(Oc1cc(-c2ccc(C(=O)N3CCC(N4CCCC4)CC3)cc2)cnc1N)c1c(Cl)cccc1Cl (stereo not drawn) [Example I-410, (4-{6-Amino-5-[1-(2,6-dichloro-phenyl)-ethoxy]-pyridin-3-yl}-phenyl)-(4-pyrrolidin-1-yl-piperidin-1-yl)-methanone]",0.055 µM
8,"CC(Oc1cc(-c2ccc(C(=O)N3CCN(C)CC3)cc2)cnc1N)c1c(Cl)cccc1Cl (stereo not drawn) [Example I-411, (4-{6-Amino-5-[1-(2,6-dichloro-phenyl)-ethoxy]-pyridin-3-yl}-phenyl)-(4-methyl-piperazin-1-yl)-methanone]",0.053 µM
9,"CC(Oc1cc(C#CCNC(=O)N2CCC[C@H]2CN2CCCC2)cnc1N)c1c(Cl)ccc(F)c1Cl (stereo partly drawn) [Example I-412, (S)-2-Pyrrolidin-1-ylmethyl-pyrrolidine-1-carboxylic acid (3-{6-amino-5-[1-(2,6-dichloro-3-fluoro-phenyl)-ethoxy]-pyridin-3-yl}-prop-2-ynyl)-amide]",0.067 µM
10,"CC(Oc1cc(C#CCNC(=O)N2CCN(C)CC2)cnc1N)c1c(Cl)ccc(F)c1Cl (stereo not drawn) [Example I-413, 4-Methyl-piperazine-1-carboxylic acid (3-{6-amino-5-[1-(2,6-dichloro-3-fluoro-phenyl)-ethoxy]-pyridin-3-yl}-prop-2-ynyl)-amide]",0.056 µM
11,"CC(Oc1cc(C#CCNC(=O)N2CCC(N3CCCC3)CC2)cnc1N)c1c(Cl)ccc(F)c1Cl (stereo not drawn) [Example I-414, 4-Pyrrolidin-1-yl-piperidine-1-carboxylic acid (3-{6-amino-5-[1-(2,6-dichloro-3-fluoro-phenyl)-ethoxy]-pyridin-3-yl}-prop-2-ynyl)-amide]",0.058 µM
12,"CC(Oc1cc(C#CCNC(=O)N2C[C@@H](C)N[C@@H](C)C2)cnc1N)c1c(Cl)ccc(F)c1Cl (stereo partly drawn) [Example I-415, (3R,5S)-3,5-Dimethyl-piperazine-1-carboxylic acid (3-{6-amino-5-[1-(2,6-dichloro-3-fluoro-phenyl)-ethoxy]-pyridin-3-yl}-prop-2-ynyl)-amide]",0.063 µM
13,"CC(Oc1cc(C#CCNC(=O)NC2CCN(C)CC2)cnc1N)c1c(Cl)ccc(F)c1Cl (stereo not drawn) [Example I-416, 1-(3-{6-Amino-5-[1-(2,6-dichloro-3-fluoro-phenyl)-ethoxy]-pyridin-3-yl}-prop-2-ynyl)-3-(1-methyl-piperidin-4-yl)-urea]",0.051 µM
14,"CC(Oc1cc(C#CCNC(=O)NCCCN2CCCC2)cnc1N)c1c(Cl)ccc(F)c1Cl (stereo not drawn) [Example I-417, 1-(3-{6-Amino-5-[1-(2,6-dichloro-3-fluoro-phenyl)-ethoxy]-pyridin-3-yl}-prop-2-ynyl)-3-(3-pyrrolidin-1-yl-propyl)-urea]",0.062 µM
15,"CC(Oc1cc(C#CCNC(=O)NCCN2CCCC2)cnc1N)c1c(Cl)ccc(F)c1Cl (stereo not drawn) [Example I-418, 1-(3-{6-Amino-5-[1-(2,6-dichloro-3-fluoro-phenyl)-ethoxy]-pyridin-3-yl}-prop-2-ynyl)-3-(2-pyrrolidin-1-yl-ethyl)-urea]",0.052 µM
16,CC(Oc1cc(C#CCNC(=O)NCCN2CCOCC2)cnc1N)c1c(Cl)ccc(F)c1Cl (stereo not drawn) [Example I-419],0.055 µM
17,"CC(Oc1cc(C#CCNC(=O)NCCCN2CCOCC2)cnc1N)c1c(Cl)ccc(F)c1Cl (stereo not drawn) [Example I-420, 1-(3-{6-Amino-5-[1-(2,6-dichloro-3-fluoro-phenyl)-ethoxy]-pyridin-3-yl}-prop-2-ynyl)-3-(3-morpholin-4-yl-propyl)-urea]",0.064 µM
18,CC(Oc1cc(C#CCNC(=O)N2CCC[C@@H]2CN2CCCC2)cnc1N)c1c(Cl)ccc(F)c1Cl (stereo partly drawn) [Example I-421],0.071 µM
19,"CC(Oc1cc(C#CCN(C)C)cnc1N)c1c(Cl)ccc(F)c1Cl (stereo not drawn) [Example I-422, 3-[1-(2,6-Dichloro-3-fluoro-phenyl)-ethoxy]-5-(3-dimethylamino-prop-1-ynyl)-pyridin-2-ylamine]",0.071 µM
20,"CC(Oc1cc(C#CCNC(N)=O)cnc1N)c1c(Cl)ccc(F)c1Cl (stereo not drawn) [Example I-423, (3-{6-Amino-5-[1-(2,6-dichloro-3-fluoro-phenyl)-pnlethoxy]-pyridin-3-yl}-prop-2-ynyl)-area]",0.062 µM

row,SMILES,IC50
1,"CC(Oc1cc(C#CCNC(=O)CN2CCCCC2)cnc1N)c1c(Cl)ccc(F)c1Cl (stereo not drawn) [Example I-424, N-(3-{6-Amino-5-[1-(2,6-dichloro-3-fluoro-phenyl)-ethoxy]-pyridin-3-yl}-prop-2-ynyl)-2-piperidin-1- -yl-acetamide]",0.016 µM
2,"CC(Oc1cc(C#CCNC(=O)CN2CCOCC2)cnc1N)c1c(Cl)ccc(F)c1Cl (stereo not drawn) [Example I-425, N-(3-{6-Amino-5-[1-(2,6-dichloro-3-fluoro-phenyl)-ethoxy]-pyridin-3-yl}-prop-2-ynyl)-2-morpholin-4-yl-acetamide]",0.027 µM
3,"CC(Oc1cc(C#CCNC(=O)CN2CCCC2)cnc1N)c1c(Cl)ccc(F)c1Cl (stereo not drawn) [Example I-426, N-(3-{8-Amino-5-[1-(2,6-dichloro-3-fluoro-phenyl)-ethoxy]-pyridin-3-yl}-prop-2-ynyl)-2-pyrrolidin-1-yl-acetamide]",0.0091 µM
4,"CC(Oc1cc(C#CCNC(=O)CN2CC[C@@H](O)C2)cnc1N)c1c(Cl)ccc(F)c1Cl (stereo partly drawn) [Example I-427, N-(3-{6-Amino-5-[1-(2,6-dichloro-3-fluoro-phenyl)-ethoxy]-pyridin-3-yl}-prop-2-ynyl)-2-((R)-3-hydroxy-pyrrolidin-1-yl)-acetamide]",0.011 µM
5,"CC(Oc1cc(C#CCNC(=O)CN2CCC(O)CC2)cnc1N)c1c(Cl)ccc(F)c1Cl (stereo not drawn) [Example I-428, N-(3-{6-Amino-5-[1-(2,6-dichloro-3-fluoro-phenyl)-ethoxy]-pyridin-3-yl}-prop-2-ynyl)-2-(4-hydroxy-piperidin-1-yl)-acetamide]",0.012 µM
6,"CC(Oc1cc(C#CCNC(=O)CN(C)C)cnc1N)c1c(Cl)ccc(F)c1Cl (stereo not drawn) [Example I-429, N-(3-{6-Amino-5-[1-(2,6-dichloro-3-fluoro-phenyl)-ethoxy]-pyridin-3-yl}-prop-2-ynyl)-2-dimethylamino-acetamide]",0.022 µM
7,"CCN(CC)CC(=O)NCC#Cc1cnc(N)c(OC(C)c2c(Cl)ccc(F)c2Cl)c1 (stereo not drawn) [Example I-430, N-(3-{6-Amino-5-[1-(2,6-dichloro-3-fluoro-phenyl)-ethoxy]-pyridin-3-yl}-prop-2-ynyl)-2-diethylamino-acetamide]",0.013 µM
8,"CC(=O)N1CCN(CC(=O)NCC#Cc2cnc(N)c(OC(C)c3c(Cl)ccc(F)c3Cl)c2)CC1 (stereo not drawn) [Example I-431, 2-(4-Acetyl-piperazin-1-yl)-N-(3-{6-amino-5-[1-(2,6-dichloro-3-fluoro-phenyl)-ethoxy]pyridin-3-yl}-prop-2-ynyl)-acetamide]",0.027 µM
9,"Nc1ncc(-c2ccccn2)cc1OCc1ccccc1 [Example I-488, 5′-Benzyloxy-[2,3′]bipyridinyl-6′-ylamine]",> 20 µM
10,"Nc1ncc(-c2cncnc2)cc1OCc1ccccc1 [Example I-490, 3-Benzyloxy-5-pyrimidin-5-yl-pyridin-2-ylamine]",> 20 µM
11,"Nc1ccc(-c2cnc(N)c(OCc3ccccc3)c2)cn1 [Example I-491, 5-Benzyloxy-[3,3′]bipyridinyl-6,6′-diamine]",> 20 µM
12,"Nc1ncc(-c2ccccn2)cc1OCc1ccccc1Cl [Example I-492, 5′-(2-Chloro-benzyloxy)-[2,3′]bipyridinyl-6′-ylamine]",8.24 µM
13,Nc1ncc(-c2cccnc2)cc1OCc1ccccc1Cl [Example I-493],4.6 µM
14,"Nc1ncc(-c2cncnc2)cc1OCc1ccccc1Cl [Example I-494, 3-(2-Chloro-benzyloxy)-5-pyrimidin-5-yl-pyridin-2-ylamine]",19.3 µM
15,"Nc1ccc(-c2cnc(N)c(OCc3ccccc3Cl)c2)cn1 [Example I-495, 5-(2-Chloro-benzyloxy)-[3,3′]bipyridinyl-6,6′-diamine]",4.31 µM
16,"Nc1ncc(-c2ccccn2)cc1OCc1ccc(Cl)cc1 [Example I-496, 5′-(4-Chloro-benzyloxy)-[2,3′]bipyridinyl-6′-ylamine]",14 µM
17,"Nc1ncc(-c2cccnc2)cc1OCc1ccc(Cl)cc1 [Example I-497, 5-(4-Chloro-benzyloxy)-[3,3′]bipyridinyl-6-ylamine]",14.1 µM
18,"Nc1ncc(-c2cncnc2)cc1OCc1ccc(Cl)cc1 [Example I-498, 3-(4-Chloro-benzyloxy)-5-pyrimidin-5-yl-pyridin-2-ylamine]",> 20 µM
19,"Nc1ccc(-c2cnc(N)c(OCc3ccc(Cl)cc3)c2)cn1 [Example I-499, 5-(4-Chloro-benzyloxy)-[3.3═]bipyridinyl-6,6′-diamine]",> 20 µM

# From patent US20050009840A1 (SUGEN, INC., priority 2003, published 2005)
